Source: the OligoGym collection
HELM strings list units from the 5' end as sugar, base in round brackets, then linkage (d deoxyribose, r ribose, m 2'-O-methyl, p phosphodiester). Strings are as the collection lists them, not checked against the first reports. ss, as = sense and antisense strand

Settings: siRNA
Note: test system not given here.

Substance	target mRNA knockdown
RNA1{m(A)p.r(C)p.m(C)p.r(G)p.m(A)p.r(C)p.m(G)p.r(A)p.m(U)p.r(U)p.m(C)p.r(U)p.m(U)p.r(C)p.m(U)p.r(A)p.m(C)p.r(U)p.m(C)p.r(T)p.r(T)}|RNA2{r(G)p.r(A)p.r(G)p.r(U)p.r(A)p.r(G)p.r(A)p.r(A)p.r(G)p.r(A)p.r(A)p.r(U)p.r(C)p.r(G)p.r(U)p.r(C)p.r(G)p.r(G)p.r(U)p.r(T)p.r(T)}$$$RNA1{StrandType:ss}|RNA2{StrandType:as}$	42%
RNA1{m(A)p.r(C)p.m(C)p.r(U)p.m(U)p.r(A)p.m(A)p.r(G)p.m(G)p.r(A)p.m(C)p.r(C)p.m(A)p.r(C)p.m(C)p.r(G)p.m(G)p.r(A)p.m(U)p.r(T)p.r(T)}|RNA2{r(A)p.r(U)p.r(C)p.m(C)p.r(G)p.r(G)p.r(U)p.r(G)p.r(G)p.r(U)p.r(C)p.r(C)p.m(U)p.r(U)p.m(A)p.r(A)p.m(G)p.r(G)p.m(U)p.r(T)p.r(T)}$$$RNA1{StrandType:ss}|RNA2{StrandType:as}$	52%
RNA1{m(A)p.r(C)p.m(G)p.r(U)p.m(C)p.r(A)p.m(C)p.r(C)p.m(G)p.r(A)p.m(G)p.r(G)p.m(A)p.r(G)p.m(A)p.r(A)p.m(G)p.r(U)p.m(A)p.r(T)p.r(T)}|RNA2{r(U)p.r(A)p.r(C)p.r(U)p.r(U)p.r(C)p.r(U)p.r(C)p.r(C)p.r(U)p.r(C)p.m(G)p.m(G)p.r(U)p.r(G)p.r(A)p.r(C)p.m(G)p.r(U)p.r(T)p.r(T)}$$$RNA1{StrandType:ss}|RNA2{StrandType:as}$	31%
RNA1{m(A)p.r(C)p.m(G)p.r(U)p.m(C)p.r(A)p.m(C)p.r(C)p.m(G)p.r(A)p.m(G)p.r(G)p.m(A)p.r(G)p.m(A)p.r(A)p.m(G)p.r(U)p.m(A)p.r(T)p.r(T)}|RNA2{r(U)p.r(A)p.r(C)p.r(U)p.r(U)p.r(C)p.r(U)p.r(C)p.r(C)p.r(U)p.r(C)p.r(G)p.r(G)p.r(U)p.r(G)p.r(A)p.r(C)p.r(G)p.r(U)p.r(T)p.r(T)}$$$RNA1{StrandType:ss}|RNA2{StrandType:as}$	36%
RNA1{m(A)p.r(G)p.m(A)p.r(A)p.m(A)p.r(A)p.m(G)p.r(C)p.m(A)p.r(G)p.m(C)p.r(G)p.m(A)p.r(U)p.m(A)p.r(C)p.m(G)p.r(C)p.m(U)p.r(T)p.r(T)}|RNA2{r(A)p.r(G)p.r(C)p.r(G)p.r(U)p.r(A)p.r(U)p.r(C)p.r(G)p.r(C)p.r(U)p.r(G)p.r(C)p.r(U)p.r(U)p.r(U)p.r(U)p.r(C)p.r(U)p.r(T)p.r(T)}$$$RNA1{StrandType:ss}|RNA2{StrandType:as}$	34%
RNA1{m(A)p.r(G)p.m(A)p.r(A)p.m(A)p.r(C)p.m(G)p.r(C)p.m(A)p.r(G)p.m(U)p.r(A)p.m(A)p.r(U)p.m(C)p.r(C)p.m(G)p.r(G)p.m(A)p.r(T)p.r(T)}|RNA2{r(U)p.r(C)p.r(C)p.m(G)p.m(G)p.r(A)p.r(U)p.r(U)p.r(A)p.r(C)p.r(U)p.m(G)p.r(C)p.m(G)p.r(U)p.r(U)p.r(U)p.r(C)p.r(U)p.r(T)p.r(T)}$$$RNA1{StrandType:ss}|RNA2{StrandType:as}$	36%
RNA1{m(A)p.r(G)p.m(A)p.r(A)p.m(G)p.r(U)p.m(A)p.r(C)p.m(C)p.r(A)p.m(G)p.r(G)p.m(A)p.r(G)p.m(G)p.r(C)p.m(G)p.r(U)p.m(U)p.r(T)p.r(T)}|RNA2{r(A)p.r(A)p.r(C)p.r(G)p.r(C)p.r(C)p.r(U)p.r(C)p.r(C)p.r(U)p.r(G)p.r(G)p.r(U)p.r(A)p.r(C)p.r(U)p.r(U)p.r(C)p.r(U)p.r(T)p.r(T)}$$$RNA1{StrandType:ss}|RNA2{StrandType:as}$	24%
RNA1{m(A)p.r(G)p.m(A)p.r(G)p.m(A)p.r(G)p.m(G)p.r(U)p.m(G)p.r(G)p.m(A)p.r(G)p.m(G)p.r(U)p.m(A)p.r(U)p.m(C)p.r(U)p.m(C)p.r(T)p.r(T)}|RNA2{r(G)p.r(A)p.r(G)p.r(A)p.r(U)p.r(A)p.r(C)p.r(C)p.r(U)p.r(C)p.r(C)p.m(A)p.r(C)p.r(C)p.r(U)p.m(C)p.r(U)p.m(C)p.r(U)p.r(T)p.r(T)}$$$RNA1{StrandType:ss}|RNA2{StrandType:as}$	67%
RNA1{m(A)p.r(G)p.m(C)p.r(C)p.m(A)p.r(C)p.m(A)p.r(U)p.m(U)p.r(U)p.m(C)p.r(U)p.m(A)p.r(G)p.m(G)p.r(A)p.m(G)p.r(A)p.r(U)p.r(T)p.r(T)}|RNA2{r(A)p.r(U)p.r(C)p.r(U)p.r(C)p.r(C)p.r(U)p.r(A)p.r(G)p.r(A)p.r(A)p.r(A)p.r(U)p.r(G)p.r(U)p.r(G)p.r(G)p.r(C)p.r(U)p.r(T)p.r(T)}$$$RNA1{StrandType:ss}|RNA2{StrandType:as}$	19%
RNA1{m(A)p.r(G)p.m(C)p.r(C)p.m(U)p.r(C)p.m(C)p.r(A)p.m(A)p.r(A)p.m(C)p.r(U)p.m(C)p.r(C)p.m(U)p.r(A)p.m(G)p.r(C)p.m(U)p.r(T)p.r(T)}|RNA2{r(A)p.r(G)p.m(C)p.r(U)p.r(A)p.r(G)p.r(G)p.r(A)p.r(G)p.r(U)p.r(U)p.r(U)p.r(G)p.r(G)p.r(A)p.r(G)p.r(G)p.m(C)p.r(U)p.r(T)p.r(T)}$$$RNA1{StrandType:ss}|RNA2{StrandType:as}$	47%
RNA1{m(A)p.r(G)p.m(C)p.r(G)p.m(A)p.r(U)p.m(C)p.r(C)p.m(C)p.r(G)p.m(A)p.r(A)p.m(C)p.r(A)p.m(A)p.r(G)p.m(U)p.r(A)p.m(U)p.r(T)p.r(T)}|RNA2{r(A)p.r(U)p.r(A)p.m(C)p.r(U)p.r(U)p.r(G)p.r(U)p.r(U)p.m(C)p.r(G)p.r(G)p.r(G)p.r(A)p.r(U)p.m(C)p.r(G)p.m(C)p.r(U)p.r(T)p.r(T)}$$$RNA1{StrandType:ss}|RNA2{StrandType:as}$	34%
RNA1{m(A)p.r(G)p.m(C)p.r(G)p.m(G)p.r(G)p.m(G)p.r(U)p.m(A)p.r(U)p.m(G)p.r(A)p.m(A)p.r(G)p.m(A)p.r(G)p.m(C)p.r(U)p.m(U)p.r(T)p.r(T)}|RNA2{r(A)p.r(A)p.r(G)p.r(C)p.r(U)p.r(C)p.r(U)p.r(U)p.r(C)p.r(A)p.r(U)p.r(A)p.r(C)p.r(C)p.r(C)p.r(C)p.r(G)p.r(C)p.r(U)p.r(T)p.r(T)}$$$RNA1{StrandType:ss}|RNA2{StrandType:as}$	75%
RNA1{m(A)p.r(G)p.m(G)p.r(A)p.m(C)p.r(G)p.m(G)p.r(U)p.m(A)p.r(C)p.m(U)p.r(U)p.m(U)p.r(C)p.m(G)p.r(A)p.m(A)p.r(A)p.m(G)p.r(T)p.r(T)}|RNA2{r(C)p.m(U)p.m(U)p.m(U)p.r(C)p.r(G)p.r(A)p.r(A)p.r(A)p.r(G)p.m(U)p.r(A)p.r(C)p.r(C)p.r(G)p.m(U)p.r(C)p.r(C)p.m(U)p.r(T)p.r(T)}$$$RNA1{StrandType:ss}|RNA2{StrandType:as}$	17%
RNA1{m(A)p.r(G)p.m(U)p.r(C)p.m(C)p.r(C)p.m(U)p.r(G)p.m(G)p.r(A)p.m(G)p.r(C)p.m(C)p.r(U)p.r(U)p.r(A)p.m(A)p.r(A)p.m(C)p.r(T)p.r(T)}|RNA2{r(G)p.r(U)p.r(U)p.r(U)p.r(A)p.r(A)p.r(G)p.r(G)p.r(C)p.r(U)p.r(C)p.r(C)p.r(A)p.r(G)p.r(G)p.r(G)p.r(A)p.r(C)p.r(U)p.r(T)p.r(T)}$$$RNA1{StrandType:ss}|RNA2{StrandType:as}$	68%
RNA1{m(A)p.r(G)p.m(U)p.r(U)p.m(A)p.r(A)p.m(C)p.r(C)p.m(C)p.r(G)p.m(G)p.r(G)p.m(A)p.r(C)p.m(U)p.r(U)p.m(G)p.r(G)p.m(A)p.r(T)p.r(T)}|RNA2{r(U)p.r(C)p.r(C)p.r(A)p.r(A)p.m(G)p.r(U)p.r(C)p.r(C)p.r(C)p.m(G)p.m(G)p.m(G)p.r(U)p.r(U)p.r(A)p.r(A)p.r(C)p.r(U)p.r(T)p.r(T)}$$$RNA1{StrandType:ss}|RNA2{StrandType:as}$	45%
RNA1{m(A)p.r(G)p.r(C)p.r(U)p.r(C)p.r(U)p.r(U)p.r(U)p.r(G)p.r(U)p.r(C)p.m(A)p.r(C)p.r(C)p.r(U)p.r(C)p.r(U)p.r(C)p.r(U)p.r(T)p.r(T)}|RNA2{m(A)p.r(G)p.m(A)p.r(G)p.m(A)p.r(G)p.m(G)p.r(U)p.m(G)p.r(A)p.m(C)p.r(A)p.m(A)p.r(A)p.m(G)p.r(A)p.m(G)p.r(C)p.m(U)p.r(T)p.r(T)}$$$RNA1{StrandType:ss}|RNA2{StrandType:as}$	19%
RNA1{m(A)p.r(U)p.m(A)p.r(C)p.m(U)p.r(U)p.m(G)p.r(G)p.m(C)p.r(G)p.m(G)p.r(G)p.m(C)p.r(U)p.m(C)p.r(U)p.m(U)p.r(U)p.m(C)p.r(T)p.r(T)}|RNA2{m(G)p.r(A)p.r(A)p.r(A)p.m(G)p.r(A)p.m(G)p.r(C)p.r(C)p.r(C)p.m(G)p.r(C)p.r(C)p.r(A)p.r(A)p.m(G)p.r(U)p.r(A)p.r(U)p.r(T)p.r(T)}$$$RNA1{StrandType:ss}|RNA2{StrandType:as}$	25%
RNA1{m(A)p.r(U)p.m(A)p.r(C)p.m(U)p.r(U)p.m(G)p.r(G)p.m(C)p.r(G)p.m(G)p.r(G)p.m(C)p.r(U)p.m(C)p.r(U)p.m(U)p.r(U)p.m(C)p.r(T)p.r(T)}|RNA2{r(G)p.r(A)p.r(A)p.r(A)p.r(G)p.r(A)p.r(G)p.r(C)p.r(C)p.r(C)p.r(G)p.r(C)p.r(C)p.r(A)p.r(A)p.r(G)p.r(U)p.r(A)p.r(U)p.r(T)p.r(T)}$$$RNA1{StrandType:ss}|RNA2{StrandType:as}$	19%
RNA1{m(A)p.r(U)p.m(C)p.r(A)p.m(C)p.r(A)p.m(A)p.r(A)p.m(C)p.r(C)p.m(C)p.r(C)p.m(U)p.r(A)p.m(G)p.r(A)p.m(G)p.r(G)p.m(G)p.r(T)p.r(T)}|RNA2{r(C)p.r(C)p.r(C)p.r(U)p.r(C)p.r(U)p.m(A)p.r(G)p.r(G)p.r(G)p.r(G)p.r(U)p.r(U)p.r(U)p.r(G)p.r(U)p.r(G)p.m(A)p.r(U)p.r(T)p.r(T)}$$$RNA1{StrandType:ss}|RNA2{StrandType:as}$	35%
RNA1{m(A)p.r(U)p.m(C)p.r(A)p.m(C)p.r(A)p.m(A)p.r(A)p.m(C)p.r(C)p.m(C)p.r(C)p.m(U)p.r(A)p.m(G)p.r(A)p.m(G)p.r(G)p.m(G)p.r(T)p.r(T)}|RNA2{r(C)p.r(C)p.r(C)p.r(U)p.r(C)p.r(U)p.r(A)p.r(G)p.r(G)p.r(G)p.r(G)p.r(U)p.r(U)p.r(U)p.r(G)p.r(U)p.r(G)p.r(A)p.r(U)p.r(T)p.r(T)}$$$RNA1{StrandType:ss}|RNA2{StrandType:as}$	9%
RNA1{m(A)p.r(U)p.m(C)p.r(A)p.m(G)p.r(A)p.m(G)p.r(G)p.m(G)p.r(A)p.m(G)p.r(G)p.m(U)p.r(C)p.m(U)p.r(U)p.m(A)p.r(G)p.m(A)p.r(T)p.r(T)}|RNA2{r(U)p.r(C)p.r(U)p.r(A)p.r(A)p.m(G)p.r(A)p.r(C)p.r(C)p.r(U)p.r(C)p.r(C)p.r(C)p.r(U)p.m(C)p.r(U)p.m(G)p.r(A)p.m(U)p.r(T)p.r(T)}$$$RNA1{StrandType:ss}|RNA2{StrandType:as}$	19%
